Assay results published in ChEMBL document CHEMBL1135674, “A new series of estrogen receptor modulators that display selectivity for estrogen receptor beta” (J Med Chem, 2002).
One block for each molecule: values may come before it. Activity calls are given as the source filed them. No cut-off for these calls is given here.

Assays:
Estrogen receptor [1] = biological target: T1, Estrogen receptor (Homo sapiens, UniProt P03372)
T1 sequence (P03372 whole entry): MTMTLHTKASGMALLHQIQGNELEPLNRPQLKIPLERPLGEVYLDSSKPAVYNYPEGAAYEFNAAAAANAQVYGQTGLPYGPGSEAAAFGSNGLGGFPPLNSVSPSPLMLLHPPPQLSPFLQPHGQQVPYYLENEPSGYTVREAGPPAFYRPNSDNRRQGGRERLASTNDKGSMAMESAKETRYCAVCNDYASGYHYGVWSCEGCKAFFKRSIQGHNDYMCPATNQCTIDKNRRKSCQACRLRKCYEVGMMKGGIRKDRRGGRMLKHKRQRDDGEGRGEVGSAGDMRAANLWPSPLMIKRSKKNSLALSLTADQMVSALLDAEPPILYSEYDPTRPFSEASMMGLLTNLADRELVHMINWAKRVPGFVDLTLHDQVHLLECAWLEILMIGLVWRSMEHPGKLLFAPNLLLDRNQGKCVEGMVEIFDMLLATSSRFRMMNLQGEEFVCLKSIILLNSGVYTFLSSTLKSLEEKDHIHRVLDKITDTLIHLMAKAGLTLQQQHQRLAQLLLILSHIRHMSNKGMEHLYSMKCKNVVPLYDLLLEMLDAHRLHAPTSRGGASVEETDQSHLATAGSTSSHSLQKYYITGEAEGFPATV

Estrogen receptor beta [2] = biological target: T2, Estrogen receptor beta (Homo sapiens, UniProt Q92731)
T2 sequence (Q92731 whole entry): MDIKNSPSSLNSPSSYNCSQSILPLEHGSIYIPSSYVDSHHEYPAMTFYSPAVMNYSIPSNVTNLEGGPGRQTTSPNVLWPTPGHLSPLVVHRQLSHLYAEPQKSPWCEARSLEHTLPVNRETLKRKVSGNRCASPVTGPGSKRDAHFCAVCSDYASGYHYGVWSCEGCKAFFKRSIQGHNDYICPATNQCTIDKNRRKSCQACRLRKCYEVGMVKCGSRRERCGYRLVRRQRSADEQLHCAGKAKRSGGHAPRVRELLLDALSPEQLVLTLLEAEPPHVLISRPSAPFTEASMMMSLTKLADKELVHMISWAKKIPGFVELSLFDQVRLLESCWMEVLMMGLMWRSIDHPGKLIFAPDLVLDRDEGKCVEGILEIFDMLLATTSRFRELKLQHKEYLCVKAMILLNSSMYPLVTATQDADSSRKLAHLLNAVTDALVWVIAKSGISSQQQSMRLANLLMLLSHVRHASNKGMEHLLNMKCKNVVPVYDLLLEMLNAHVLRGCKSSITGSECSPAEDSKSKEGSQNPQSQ

Estrogen receptor beta [3] = biological target: T2, Estrogen receptor beta; remark: listed apart in the source
Estrogen receptor beta [4] = biological target: T2, Estrogen receptor beta; conditions: T47D
Estrogen receptor [5] = biological target: T1, Estrogen receptor; remark: listed apart in the source
Estrogen receptor [6] = biological target: T1, Estrogen receptor; remark: listed apart in the source

Compound: CN1CCN(c2nc(NCCCc3ccccc3)nc(NCCc3cccc(O)c3)n2)CC1
Ki (Estrogen receptor [1]): > 10000 nM
Ki (Estrogen receptor beta [2]): 4250 nM

Compound: CN1CCN(c2nc(NCCCc3ccccc3)nc(N3CCCC(c4ccc(O)cc4)C3)n2)CC1 (stereo not drawn)
Ki (Estrogen receptor [1]): > 10000 nM
Ki (Estrogen receptor beta [2]): > 10000 nM

Compound: CN1CCN(c2nc(NCCc3ccc(O)cc3)nc(OCCCc3ccccc3)n2)CC1
Ki (Estrogen receptor [1]): 2400 nM
Ki (Estrogen receptor beta [2]): 1000 nM

Compound: CN(CCCc1ccc(Cl)cc1)c1nc(NCCc2ccc(O)cc2)nc(N2CCN(Cc3ccccc3)CC2)n1
Ki (Estrogen receptor [1]): 120 nM
Ki (Estrogen receptor beta [2]): 8 nM

Compound: CN1CCN(c2nc(NCCCc3ccccc3)nc(N3CCc4cc(O)ccc4C3)n2)CC1
Ki (Estrogen receptor [1]): > 10000 nM
Ki (Estrogen receptor beta [2]): > 10000 nM

Compound: CN1CCN(c2nc(NCCCc3ccccc3)nc(NC3CCc4cc(O)ccc4C3)n2)CC1 (stereo not drawn)
Ki (Estrogen receptor [1]): 1000 nM
Ki (Estrogen receptor beta [2]): 170 nM

Compound: CN1CCN(c2nc(NCCCc3ccccc3)nc(NC3CCc4ccc(O)cc4C3)n2)CC1 (stereo not drawn)
Ki (Estrogen receptor [1]): > 10000 nM
Ki (Estrogen receptor beta [2]): > 10000 nM

Compound: CN(CCCc1ccccc1Cl)c1nc(NCCc2ccc(O)cc2)nc(N2CCNCC2)n1
Ki (Estrogen receptor [1]): 680 nM
Ki (Estrogen receptor beta [2]): 40 nM

Compound: Oc1ccc(CCNc2nc(NCCc3ccccc3)nc(N3CCNCC3)n2)cc1
Ki (Estrogen receptor [1]): 2370 nM
Ki (Estrogen receptor beta [2]): 1750 nM

Compound: CN(CCCc1ccc(Cl)cc1)c1nc(NCCc2ccc(O)cc2)nc(N2CCN(S(=O)(=O)/C=C/c3ccccc3)CC2)n1
Ki (Estrogen receptor [1]): 1300 nM
Ki (Estrogen receptor beta [2]): 225 nM

Compound: CN(CCCc1ccc(Cl)cc1)c1nc(NCCc2ccc(O)cc2)nc(N2CCN(C3CCCC3)CC2)n1
Ki (Estrogen receptor [1]): 180 nM
Ki (Estrogen receptor beta [2]): 40 nM

Compound: CN(C[C@@H]1C[C@@H]1c1ccccc1)c1nc(NCCc2ccc(O)cc2)nc(N2CCNCC2)n1 (relative stereo)
IA (Estrogen receptor beta [4]): inactive

Compound: Oc1ccc(CCNc2nc(NCCCc3ccccc3)nc(N3CCNCC3)n2)cc1
Ki (Estrogen receptor [1]): 1380 nM
Ki (Estrogen receptor beta [2]): 200 nM

Compound: Oc1ccc(CCNc2nc(SCCCc3ccc(Cl)cc3)nc(N3CCNCC3)n2)cc1
IA (Estrogen receptor beta [4]): inactive

Compound: CN(CCCc1ccc(C#N)cc1)c1nc(NCCc2ccc(O)cc2)nc(N2CCNCC2)n1
Ki (Estrogen receptor [1]): 570 nM
Ki (Estrogen receptor beta [2]): 90 nM

Compound: CN1CCN(c2nc(NCCCc3ccccc3)nc(NCCc3ccc(O)cc3)n2)CC1
Ki (Estrogen receptor [1]): 3240 nM
Ki (Estrogen receptor beta [2]): 490 nM

Compound: Oc1ccc(CCNc2nc(NCCCc3ccc(Cl)cc3)nc(N3CCNCC3)n2)cc1
Ki (Estrogen receptor [1]): 200 nM
Ki (Estrogen receptor beta [2]): 55 nM

Compound: CN1CCN(c2nc(NCCc3ccc(O)cc3)nc(SCCCc3ccccc3)n2)CC1
Ki (Estrogen receptor [1]): 270 nM
Ki (Estrogen receptor beta [2]): 50 nM

Compound: CN(CCCc1ccc(Cl)cc1Cl)c1nc(NCCc2ccc(O)cc2)nc(N2CCNCC2)n1
Ki (Estrogen receptor [1]): 125 nM
Ki (Estrogen receptor beta [2]): 25 nM

Compound: CN(CCCC1CCCCC1)c1nc(NCCc2ccc(O)cc2)nc(N2CCNCC2)n1
Ki (Estrogen receptor [1]): 1420 nM
Ki (Estrogen receptor beta [2]): 820 nM

Compound: CN1CCN(c2nc(NCCCc3ccccc3)nc(NCc3ccc(O)cc3)n2)CC1
Ki (Estrogen receptor [1]): 5130 nM
Ki (Estrogen receptor beta [2]): 3690 nM

Compound: Oc1ccc(CCNc2nc(NC/C=C/c3ccccc3)nc(N3CCNCC3)n2)cc1
Ki (Estrogen receptor [1]): 6870 nM
Ki (Estrogen receptor beta [2]): 4200 nM

Compound: CN(CCCc1ccc(Cl)cc1)c1nc(NCCc2ccc(O)cc2)nc(N2CCN(Cc3ccncc3)CC2)n1
Ki (Estrogen receptor [1]): 810 nM
Ki (Estrogen receptor beta [2]): 115 nM

Compound: CN1CCN(c2nc(NCCc3ccc(O)cc3)nc(NC3CCc4ccccc43)n2)CC1 (stereo not drawn)
Ki (Estrogen receptor [1]): > 10000 nM
Ki (Estrogen receptor beta [2]): > 10000 nM

Compound: CN(CCCc1ccc(Cl)cc1)c1nc(NCCc2ccc(O)cc2)nc(N2C[C@@H]3C[C@H]2CN3)n1
Ki (Estrogen receptor [1]): 2280 nM
Ki (Estrogen receptor beta [2]): 105 nM

Compound: CN(CCCc1ccc2c(c1)OCO2)c1nc(NCCc2ccc(O)cc2)nc(N2CCNCC2)n1
Ki (Estrogen receptor [1]): 560 nM
Ki (Estrogen receptor beta [2]): 30 nM

Compound: CN(CCCc1ccc(C(F)(F)F)cc1)c1nc(NCCc2ccc(O)cc2)nc(N2CCNCC2)n1
Ki (Estrogen receptor [1]): 480 nM
Ki (Estrogen receptor beta [2]): 75 nM

Compound: CN(CCCc1ccc(F)c(F)c1)c1nc(NCCc2ccc(O)cc2)nc(N2CCNCC2)n1
Ki (Estrogen receptor [1]): 200 nM
Ki (Estrogen receptor beta [2]): 20 nM

Compound: C[C@@H]1CN(c2nc(NCCc3ccc(O)cc3)nc(N(C)CCCc3ccc(Cl)cc3)n2)C[C@H](C)N1
Ki (Estrogen receptor [1]): 60 nM
Ki (Estrogen receptor beta [2]): 15 nM

Compound: Oc1ccc(CCNc2nc(SCCOc3ccc(Cl)cc3)nc(N3CCNCC3)n2)cc1
Ki (Estrogen receptor [1]): 570 nM
Ki (Estrogen receptor beta [2]): 90 nM

Compound: CN(CCOc1ccc(Cl)cc1)c1nc(NCCc2ccc(O)cc2)nc(N2CCNCC2)n1
Ki (Estrogen receptor [1]): 1000 nM
Ki (Estrogen receptor beta [2]): 170 nM

Compound: CN(CCCc1ccc(F)cc1)c1nc(NCCc2ccc(O)cc2)nc(N2CCNCC2)n1
Ki (Estrogen receptor [1]): 380 nM
IC50 (Estrogen receptor beta [3]): 15 nM
IA (Estrogen receptor beta [4]): inactive
EC50 (Estrogen receptor [5]): 200 nM
Ki (Estrogen receptor beta [2]): 15 nM
IC50 (Estrogen receptor [6]): 240 nM

Compound: Cc1ccc(CCCN(C)c2nc(NCCc3ccc(O)cc3)nc(N3CCNCC3)n2)cc1
Ki (Estrogen receptor [1]): 1140 nM
Ki (Estrogen receptor beta [2]): 100 nM

Compound: CN1CCN(c2nc(NCCCCc3ccccc3)nc(NCCc3ccc(O)cc3)n2)CC1
Ki (Estrogen receptor [1]): 415 nM
Ki (Estrogen receptor beta [2]): 490 nM

Other lines, results leading:

Ki (Estrogen receptor [1]): 1020 nM
Ki (Estrogen receptor beta [2]): 210 nM
Compound: CN(CCCc1ccc(Cl)cc1)c1nc(NCCc2ccc(O)cc2)nc(N2CCN(CC(=O)C(C)(C)C)CC2)n1

Ki (Estrogen receptor [1]): 250 nM
Ki (Estrogen receptor beta [2]): 40 nM
Compound: CCC(=O)CCN1CCN(c2nc(NCCc3ccc(O)cc3)nc(N(C)CCCc3ccc(Cl)cc3)n2)CC1

Ki (Estrogen receptor [1]): 1050 nM
Ki (Estrogen receptor beta [2]): 110 nM
Compound: CN(CCCc1ccc(Cl)cc1)c1nc(NCCc2ccc(O)cc2)nc(N2CCN(C(=O)CCc3ccccc3)CC2)n1

Ki (Estrogen receptor [1]): > 10000 nM
Ki (Estrogen receptor beta [2]): 790 nM
Compound: CCN(CC)C(=O)N1CCN(c2nc(NCCc3ccc(O)cc3)nc(N(C)CCCc3ccc(Cl)cc3)n2)CC1

Ki (Estrogen receptor [1]): 395 nM
IC50 (Estrogen receptor beta [3]): 15 nM
IA (Estrogen receptor beta [4]): inactive
EC50 (Estrogen receptor [5]): 180 nM
Ki (Estrogen receptor beta [2]): 15 nM
IC50 (Estrogen receptor [6]): 30 nM
Compound: CN(CCCc1ccc(Cl)cc1)c1nc(NCCc2ccc(O)cc2)nc(N2CCN(CCO)CC2)n1

IC50 (Estrogen receptor beta [3]): 5 nM
IA (Estrogen receptor beta [4]): inactive
Ki (Estrogen receptor beta [2]): 25 nM
Compound: Cc1nc(CN2CCN(c3nc(NCCc4ccc(O)cc4)nc(N(C)CCCc4ccc(Cl)cc4)n3)CC2)cs1

Ki (Estrogen receptor [1]): 2040 nM
Ki (Estrogen receptor beta [2]): 200 nM
Compound: CN(CCCc1ccc(Cl)cc1)c1nc(NCCc2ccc(O)cc2)nc(N2CCN(CC(=O)c3ccccc3)CC2)n1

Ki (Estrogen receptor [1]): 1130 nM
Ki (Estrogen receptor beta [2]): 110 nM
Compound: COc1ccc(C(=O)N2CCN(c3nc(NCCc4ccc(O)cc4)nc(N(C)CCCc4ccc(Cl)cc4)n3)CC2)cc1

Ki (Estrogen receptor [1]): 855 nM
Ki (Estrogen receptor beta [2]): 425 nM
Compound: CN(CCCc1ccc(Cl)cc1)c1nc(NCCc2ccc(O)cc2)nc(N2CCN(C(=O)Nc3ccc(Cl)cc3)CC2)n1

Ki (Estrogen receptor [1]): 145 nM
Ki (Estrogen receptor beta [2]): 15 nM
Compound: CN1CCN(c2nc(NCCc3ccc(O)cc3)nc(N(C)CCCc3ccc(Cl)cc3)n2)CC1

Ki (Estrogen receptor [1]): 6320 nM
Ki (Estrogen receptor beta [2]): 890 nM
Compound: CN(CCCc1ccc(Cl)cc1)c1nc(NCCc2ccc(O)cc2)nc(N2CCN(c3ccccc3)CC2)n1

Ki (Estrogen receptor [1]): 2360 nM
Ki (Estrogen receptor beta [2]): 400 nM
Compound: CN(CCCc1ccc(Cl)cc1)c1nc(NCCc2ccc(O)cc2)nc(N2CCN(C(=O)N3CCOCC3)CC2)n1

Ki (Estrogen receptor [1]): 570 nM
Ki (Estrogen receptor beta [2]): 100 nM
Compound: CN(CCCc1ccc(Cl)cc1)c1nc(NCCc2ccc(O)cc2)nc(N2CCN(C(=O)COc3ccccc3)CC2)n1

Ki (Estrogen receptor beta [2]): 35 nM
Compound: CN(CCCc1ccc(Cl)cc1)c1nc(NCCc2ccc(O)cc2)nc(N2CCN(Cc3cccnc3)CC2)n1

Ki (Estrogen receptor [1]): 3000 nM
Ki (Estrogen receptor beta [2]): 270 nM
Compound: CN(C)C(=O)CN1CCN(c2nc(NCCc3ccc(O)cc3)nc(N(C)CCCc3ccc(Cl)cc3)n2)CC1

Ki (Estrogen receptor [1]): 830 nM
Ki (Estrogen receptor beta [2]): 100 nM
Compound: CCN(CCCc1ccc(Cl)cc1)c1nc(NCCc2ccc(O)cc2)nc(N2CCNCC2)n1

Ki (Estrogen receptor [1]): > 10000 nM
Ki (Estrogen receptor beta [2]): 600 nM
Compound: CC(C)S(=O)(=O)N1CCN(c2nc(NCCc3ccc(O)cc3)nc(N(C)CCCc3ccc(Cl)cc3)n2)CC1

Ki (Estrogen receptor beta [2]): 50 nM
Compound: CN(CCCc1ccc(Cl)cc1)c1nc(NCCc2ccc(O)cc2)nc(N2CCN(Cc3ccccn3)CC2)n1

Ki (Estrogen receptor [1]): 360 nM
Ki (Estrogen receptor beta [2]): 30 nM
Compound: C=CCN1CCN(c2nc(NCCc3ccc(O)cc3)nc(N(C)CCCc3ccc(Cl)cc3)n2)CC1

Ki (Estrogen receptor [1]): 1450 nM
Ki (Estrogen receptor beta [2]): 490 nM
Compound: CN(CCCc1ccc(Cl)cc1)c1nc(NCCc2ccc(O)cc2)nc(N2CCN(S(=O)(=O)Cc3ccccc3)CC2)n1
